The results in this text go back to patent US8476287B2, “3-hydroxy-5-arylisothiazole derivative” (Mochida Pharmaceutical Co., Ltd., priority 2009, dated 2013).

A word on the EC50: it is the concentration that produces a half-maximal response.

In the assay the target is T1, GPR40 of human origin (Homo sapiens, UniProt O14842).
T1 construct: expressed in transfected cells
T1 sequence (O14842 whole entry): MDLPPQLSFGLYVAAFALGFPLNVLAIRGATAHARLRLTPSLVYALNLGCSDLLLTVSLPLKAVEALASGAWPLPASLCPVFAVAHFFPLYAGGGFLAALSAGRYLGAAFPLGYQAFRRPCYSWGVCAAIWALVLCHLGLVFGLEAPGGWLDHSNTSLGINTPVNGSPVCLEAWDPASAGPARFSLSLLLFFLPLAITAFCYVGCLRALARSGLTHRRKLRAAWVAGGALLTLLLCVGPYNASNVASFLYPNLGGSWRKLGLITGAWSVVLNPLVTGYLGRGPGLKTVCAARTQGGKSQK
As to the kind of experiment: Agonist action on GPR40 of human origin (Ca2+ fluorescence in CHO cells). Conditions: CHO cell strain stably expressing GPR40 of human origin; Ca2+ concentration fluctuation, fluorescent calcium indicator. The assay is classed as cell-based. The protocol: A CHO cell strain stably expressing GPR40 of human origin was used to determine the agonist action of a subject compound. This cell strain was seeded in a clear bottom 96 well plate at 4×10^4 cells/100 μL/well. The cell strain was cultured in a CO2 incubator overnight using a Ham's F-12 medium containing a 10% fetal bovine serum, 100 U/mL penicillin, 0.1 mg/mL streptomycin, and 400 μg/mL Geneticin. Calcium 4 Assay Kit (Molecular Devices) was used as a fluorescent calcium indicator. One mL of 77 mg/mL probenecid (Invitrogen) was added to 100 mL of a calcium indicator solution to prepare a solution (loading solution) mixed with a 20 mM HEPES-containing Hanks' balanced salt solution (HBSS) in equal proportions. 200 μL of the loading solution was added to the cells from which the culture solution was removed, and the cells were cultured in a CO2 incubator for 1 hour. The subject compound was diluted with a 20 mM HEPES-containing HBSS and was added to the cells by 50 μL, and the fluctuation of the Ca^2+ concentration was measured by an intracellular ion analyzer. The EC50 value of the subject compound was calculated using the dose-response curve of fluorescence intensity variation.
As to `[O-][s+]1nc(O)cc1-c1ccc(COCc2cccc(Br)c2)cc1` (stereo not shown) [Example 141, 5-[4-[(3-bromophenyl)methoxymethyl]phenyl]isothiazol-3-ol 1-oxide], the EC50 lay in the range of 300 to 3000 nM. In the case of `CC1(C)CC=C(c2cccc3c2CC[C@H]3Oc2ccc(-c3cc(O)n[s+]3[O-])cc2)CC1` (single isomer, unassigned) [Example 120] it was 300 to 3000 nM. In the case of `Cc1cccc(C)c1-c1cccc(COc2ccc(-c3cc(O)n[s+]3[O-])cc2)c1` (stereo not shown) [Example 8, 5-(4-((3-(2,6-dimethylphenyl)phenyl)methoxy)phenyl)isothiazol-3-ol 1-oxide] it was below 300 nM; in that of `Cc1cc(OC2CCS(=O)(=O)CC2)cc(C)c1-c1cccc(COc2ccc(-c3cc(O)n[s+]3[O-])cc2)c1` (stereo not shown) [Example 28, 5-(4-((3-(2,6-dimethyl-4-((1,1-dioxidetetrahydro-2H-thiopyran-4-yl)oxy)phenyl)phenyl)methoxy)phenyl)isothiazol-3-ol 1-oxide(A)], below 300 nM. The result for `Cc1cc(OCCCNS(C)(=O)=O)cc(C)c1-c1cccc(COc2ccc(-c3cc(O)n[s+]3[O-])cc2)c1` (stereo not shown) [Example 72, N-[3-[4-[3-[[4-(3-hydroxy-1-oxo-isothiazol-5-yl)phenoxy]methyl]phenyl]-3,5-dimethylphenoxy]propyl]methanesulfonamide(A)] reads below 300 nM; that for `Cc1cc(OCCCN2CCCC2=O)cc(C)c1-c1cccc(COc2ccc(-c3cc(O)n[s+]3[O-])cc2)c1` (stereo not shown) [Example 33], below 300 nM; that for `CC1(C)CCC(C)(C)c2cc(COc3ccc(-c4cc(O)n[s+]4[O-])cc3)ccc21` (stereo not shown) [Example 85, 5-[4-[(5,5,8,8-tetramethyl-6,7-dihydronaphthalen-2-yl)methoxy]phenyl]isothiazol-3-ol 1-oxide(A)], below 300 nM. On to `Cc1cccc(C)c1N1CCC[C@H](COc2ccc(-c3cc(O)n[s+]3[O-])cc2)C1` (stereo partly drawn) [Example 96, 5-[4-[[(3S)-1-(2,6-dimethylphenyl)piperidin-3-yl]methoxy]phenyl]isothiazol-3-ol 1-oxide (A)], for which the 50% effective concentration (EC50) was below 300 nM.

Consider `CC(=O)NCCCOc1ccc(-c2cccc(COc3ccc(-c4cc(O)n[s+]4[O-])cc3)c2C)c(C)n1` (stereo not shown) [Example 71, N-[3-[5-[3-[[4-(3-hydroxy-1-oxo-isothiazol-5-yl)phenoxy]methyl]-2-methylphenyl]-6-methylpyridin-2-yl]oxypropyl]acetamide(A)], for which the half-maximal effective concentration (EC50) was 300 to 3000 nM. Consider `Cc1c(Br)cccc1COc1ccc(-c2cc(O)n[s+]2[O-])cc1` (stereo not shown) [Example 91, 5-[4-[(3-bromo-2-methylphenyl)methoxy]phenyl]isothiazol-3-ol 1-oxide(A)], for which the EC50 was in the range of 300 to 3000 nM. In the case of `[O-][s+]1nc(O)cc1-c1ccc(OCc2cccc(N3CCC(F)(F)CC3)c2)cc1` (single isomer, unassigned) [Example 93, 5-[4-[[3-(4,4-difluoropiperidin-1-yl)phenyl]methoxy]phenyl]isothiazol-3-ol 1-oxide(A)] it was 300 to 3000 nM; in that of `CCOCCOc1cc(C)c(-c2cccc(COc3ccc(-c4cc(O)n[s+]4[O-])cc3)c2)c(C)n1` (stereo not shown) [Example 19, 5-(4-((3-(2,4-dimethyl-6-(2-ethoxyethoxy)pyridin-3-yl)phenyl)methoxy)phenyl)isothiazol-3-ol 1-oxide(A)], below 300 nM.

Turning to `Cc1cc(OCC2(C)COC2)c(F)c(C)c1-c1cccc(COc2ccc(-c3cc(O)n[s+]3[O-])cc2)c1` (stereo not shown) [Example 43], the EC50 was below 300 nM. For `[O-][s+]1nc(O)cc1-c1ccc(O[C@H]2CCc3c(Br)cccc32)cc1` (stereo partly drawn) [Example 67, 5-(4-((1S)-4-bromo-2,3-dihydro-1H-inden-1-yloxy)phenyl)isothiazol-3-ol 1-oxide(A)], the concentration giving a half-maximal response (EC50) is 300 to 3000 nM. In the case of `Cc1cc(OCCCS(C)(=O)=O)nc(C)c1-c1cccc(COc2ccc(-c3cc(O)n[s+]3[O-])cc2)c1` (stereo not shown) [Example 24, 5-(4-((3-(2,4-dimethyl-6-(3-(methylsulfonyl)propoxy)pyridin-3-yl)phenyl)methoxy)phenyl)isothiazol-3-ol 1-oxide(A)], the EC50 was below 300 nM. Consider `Cc1cc(OCCC(C)(C)O)cc(C)c1-c1cccc(COc2ccc(-c3cc(O)n[s+]3[O-])cc2)c1C` (stereo not shown) [Example 13, 5-(4-((3-(2,6-dimethyl-4-(3-hydroxy-3-methylbutoxy)phenyl)-2-methylphenyl)methoxy)phenyl)isothiazol-3-ol 1-oxide], for which the concentration for a half-maximal effect (EC50) was below 300 nM. In the case of `C[C@@H](Oc1ccc(-c2cc(O)n[s+]2[O-])cc1)c1cccc(Br)c1` (stereo partly drawn) [Example 88, 5-[4-[(1R)-1-(3-bromophenyl)ethoxy]phenyl]isothiazol-3-ol 1-oxide(A)] it was 300 to 3000 nM. As for `[O-][s+]1nc(O)cc1-c1ccc(OC2CCc3c2cccc3C(F)(F)F)cc1` (stereo not shown) [Example 69, 5-(4-(4-trifluoromethyl-2,3-dihydro-1H-inden-1-yloxy)phenyl)isothiazol-3-ol 1-oxide(A)], the EC50 was below 300 nM.

`Cc1cc(OCC[C@@H](C)O)cc(C)c1-c1cccc(COc2ccc(-c3cc(O)n[s+]3[O-])cc2)c1C` (stereo partly drawn) [Example 64, 5-(4-((3-(2,6-dimethyl-4-((3R)-3-hydroxybutoxy)phenyl)-2-methylphenyl)methoxy)phenyl)isothiazol-3-ol 1-oxide(A)]: the concentration for a half-maximal effect (EC50) is below 300 nM. In the case of `[O-][s+]1nc(O)cc1-c1ccc(OCCc2cccc(Oc3ccccc3)c2)cc1` (stereo not shown) [Example 106, 5-[4-[2-(3-phenoxyphenyl)ethoxy]phenyl]isothiazol-3-ol 1-oxide] it was 300 to 3000 nM; in that of `Cc1cccc(C)c1-c1cccc2c1CC[C@H]2Oc1ccc(-c2cc(O)n[s+]2[O-])cc1` (single isomer, unassigned) [Example 107], below 300 nM. The result for `[O-][s+]1nc(O)cc1-c1ccc(O[C@@H]2CCc3c(C4CC4)cccc32)cc1` (single isomer, unassigned) [Example 109] reads below 300 nM; that for `[O-][s+]1nc(O)cc1-c1ccc(OC2CCc3c(OC4CCCCC4)cccc32)cc1` (stereo not shown) [Example 131, 5-[4-[(4-cyclohexyloxy-2,3-dihydro-1H-inden-1-yl)oxy]phenyl]isothiazol-3-ol 1-oxide(A)], below 300 nM. In the case of `Cc1cc(OC[C@H](O)CO)cc(C)c1-c1cccc(COc2ccc(-c3cc(O)n[s+]3[O-])cc2)c1` (stereo partly drawn) [Example 55, 5-(4-((3-(4-((2R)-2,3-dihydroxypropoxy)-2,6-dimethylphenyl)phenyl)methoxy)phenyl)isothiazol-3-ol 1-oxide(A)] it was below 300 nM; in that of `Cc1cc(OC2CCS(=O)(=O)CC2)cc(C)c1-c1cccc(COc2ccc(-c3cc(O)n[s+]3[O-])cc2)c1C` (stereo not shown) [Example 29, 5-(4-((3-(2,6-dimethyl-4-((1,1-dioxidetetrahydro-2H-thiopyran-4-yl)oxy)phenyl)-2-methylphenyl)methoxy)phenyl)isothiazol-3-ol 1-oxide(A)], below 300 nM. For `Cc1nc(OCCC(C)(C)O)ccc1-c1cccc(COc2ccc(-c3cc(O)n[s+]3[O-])cc2)c1C` (stereo not shown) [Example 11, 5-(4-((3-(6-(3-hydroxy-3-methylbutoxy)-2-methylpyridin-3-yl)-2-methylphenyl)methoxy)phenyl)isothiazol-3-ol 1-oxide], the EC50 is below 300 nM.

On to `Cc1cc(OCCCS(C)(=O)=O)cc(C)c1-c1cccc2c1CC[C@H]2Oc1ccc(-c2cc(O)n[s+]2[O-])cc1` (single isomer, unassigned) [Example 138], for which the half-maximal effective concentration (EC50) was below 300 nM. In the case of `[O-][s+]1nc(O)cc1-c1ccc(OC2COc3c2cccc3C(F)(F)F)cc1` (stereo not shown) [Example 80, 1-oxo-5-[4-[[7-(trifluoromethyl)-2,3-dihydro-1-benzofuran-3-yl]oxy]phenyl]-1,2-thiazol-3-ol (A)] it was below 300 nM.

With `Cc1cc(OCCC(C)(C)O)cc(C)c1-c1cccc(COc2ccc(-c3cc(O)n[s+]3[O-])cc2)c1C` (stereo not shown) [Example 31, 5-(4-((3-(2,6-dimethyl-4-(3-hydroxy-3-methylbutoxy)phenyl)-2-methylphenyl)methoxy)phenyl)isothiazol-3-ol 1-oxide(A)], the concentration giving a half-maximal response (EC50) was below 300 nM. In the case of `[O-][s+]1nc(O)cc1-c1ccc(OC2CCc3c(Cl)cccc32)cc1` (stereo not shown) [Example 68, 5-(4-(4-chloro-2,3-dihydro-1H-inden-1-yloxy)phenyl)isothiazol-3-ol 1-oxide(A)] it was below 300 nM; in that of `Cc1ncccc1Oc1cccc2c1CCC2Oc1ccc(-c2cc(O)n[s+]2[O-])cc1` (stereo not shown) [Example 125, 5-[4-[[4-(2-methylpyridin-3-yl)oxy-2,3-dihydro-1H-inden-1-yl]oxy]phenyl]isothiazol-3-ol 1-oxide(A)], below 300 nM; in that of `[O-][s+]1nc(O)cc1-c1ccc(OC2CCc3c(OC4CCOCC4)cccc32)cc1` (stereo not shown) [Example 132, 5-[4-[[4-(oxan-4-yloxy)-2,3-dihydro-1H-inden-1-yl]oxy]phenyl]isothiazol-3-ol 1-oxide(A)], below 300 nM. The result for `[O-][s+]1nc(O)cc1-c1ccc(OCc2cccc3c2OCC3)cc1` (single isomer, unassigned) [Example 95, 5-[4-(2,3-dihydro-1-benzofuran-7-ylmethoxy)phenyl]isothiazol-3-ol 1-oxide(A)] reads 300 to 3000 nM; that for `Cc1nc(OCCC(C)(C)O)ccc1-c1cccc2c1CC[C@H]2Oc1ccc(-c2cc(O)n[s+]2[O-])cc1` (single isomer, unassigned) [Example 135], below 300 nM.
